{"source": "patent US5962533A", "about": "“Hydroxy polyamines” (priority 1996, dated 1999)", "key": {"[1]": {"system": "polyamine transport apparatus", "test": "Competition with radiolabeled spermidine for uptake into L1210 cells (Ki)", "format": "cell-based, Murine", "conditions": "L1210 cells, estimated from Lineweaver-Burke plots, read-out: Ki, [3H]-spermidine transport", "description": "The same cell line was utilized to evaluate the tetraamines's competition with radiolabeled spermidine for the polyamine uptake apparatus (Ki). The Ki values here are the concentrations of drugs required to inhibit the uptake of radioactive spermidine transport by 50% (Table 1).\nUptake Determinations. The polyamine derivatives were studied for their ability to compete with [^3 H]SPD or [^14 C]SPD for uptake into L1210 leukemia cells in vitro. Cell suspensions were incubated in 1 ml of RPMI-1640 containing 1, 2, 4, 6, 8 and 10 μm radiolabeled SPD alone or with the additional presence of 10, 25 and 50 μm polyamine analogue for 20 minutes at 37° C. At the end of the incubation period, tubes were centrifuged at 900 g for 5 minutes at 0-4° C. The pellet was washed twice with 5 ml of cold RPMI-1640 containing 1 mm SPD, dissolved in 200 μl of 1N NaOH at 60° C. for 1 hour, and neutralized with 1N HCl. The material was transferred to a vial for scintillation counting."}, "[2]": {"test": "Acute toxicity, single intraperitoneal injection", "conditions": "325 mg/kg intraperitoneal, five female CD-1 mice"}, "L1210 cells": {"system": "L1210 cells", "test": "Polyamine pool analysis in analogue-treated L1210 cells (HPLC)", "format": "cell-based, Murine", "conditions": "for PUT level relative to untreated controls / SPD level relative to untreated controls / SPM level relative to untreated controls: L1210 cells, control = 100%", "description": "Polyamine Pool Analysis. While in logarithmic growth, cells were treated with the polyamine derivatives. […] Each supernatant was frozen at -20° C. until analysis by HPLC."}, "[3]": {"conditions": "3.5 μm analogue, listed as (OH)2 DEHSPM"}}, "note": "Several values for one entry are separate records, joined by “and”; a condition that tells them apart may be missing. Identical values can stand only once. Counter-ions that a name gives are not always drawn. Like-named read-outs stand apart in the source and are kept apart here."}
{"smiles": "CCNCC[C@@H](O)CNCCCCNC[C@H](O)CCNCC", "note": "[(HO)2 DEHSPM, N^1,N^14 -Diethyl-3(R),12(R)-dihydroxyhomospermine tetrahydrochloride]", "values": [{"measurement": "Ki", "setting": "[1]; listed as (OH)2 -DEHSPM", "value": 1.8, "unit": "µM"}, {"measurement": "Ki", "setting": "[1]", "value": "2 µM and 1.8 µM"}, {"measurement": "deaths after single dose", "setting": "[2]", "value": "Three of the five animals died"}, {"measurement": "PUT level relative to untreated controls", "setting": "L1210 cells; 0.7 μm analogue", "value": 45, "unit": "%"}, {"measurement": "SPD level relative to untreated controls", "setting": "L1210 cells; 0.7 μm analogue", "value": 57, "unit": "%"}, {"measurement": "SPM level relative to untreated controls", "setting": "L1210 cells; 0.7 μm analogue", "value": 96, "unit": "%"}, {"measurement": "PUT level relative to untreated controls", "setting": "L1210 cells; 3.5 μm analogue", "value": "below detectable limits"}, {"measurement": "SPD level relative to untreated controls", "setting": "L1210 cells; 3.5 μm analogue", "value": "below detectable limits"}, {"measurement": "SPM level relative to untreated controls", "setting": "L1210 cells; 3.5 μm analogue", "value": 60, "unit": "%"}, {"measurement": "PUT level relative to untreated controls", "setting": "L1210 cells; [3]", "value": 0, "unit": "%"}, {"measurement": "SPD level relative to untreated controls", "setting": "L1210 cells; [3]", "value": 0, "unit": "%"}, {"measurement": "SPM level relative to untreated controls", "setting": "L1210 cells; [3]", "value": 68, "unit": "%"}, {"measurement": "N-deethylation by L1210 cells", "setting": "L1210 cells; in vitro conditions", "value": "do not N-deethylate"}]}
